Source: patent US20230398130A1, “METHODS AND COMPOSITIONS FOR DIFFERENTIATING STEM CELLS” (Massachusetts Institute of Technology, priority 2020, published 2023)

How the values were obtained:
ISC-enriched organoids [1] = experiment: Primary screen, 384-well 2.5-D organoid differentiation (ENR+CD, 6 days): carbachol-induced lysozyme secretion (LYZ.S); format: cell-based, murine; conditions: for Dose.FC.LYZ.S: ENR+CD, 6 days, FC vs plate median; for Dose.FC.LYZ.S (log 2 fold change): primary screen, vs plate median
Text: (§1) High-throughput screening.

ISC-enriched organoids [2] = experiment: Primary screen, 384-well 2.5-D organoid differentiation (ENR+CD, 6 days, Target Selective Inhibitor Library, vs whole-plate median): ATP (CellTiter-Glo 3D, CTG); conditions: for Dose.FC.CTG: ENR+CD, 6 days, FC vs plate median; for Z.CTG: standard z score of FC; for Z.CTG (standard z score) / Dose.FC.CTG (log 2 fold change): primary screen; for Dose.FC.CTG (log 2 fold change): vs plate median
ISC-enriched organoids [3] = experiment: Primary screen, 384-well 2.5-D organoid differentiation (ENR+CD, 6 days): basal lysozyme secretion (LYZ.NS); format: cell-based, murine; conditions: for Dose.FC.LYZ.NS: ENR+CD, 6 days, FC vs plate median; for Z.LYZ.NS: standard z score of FC; for Z.LYZ.NS (standard z score) / Dose.FC.LYZ.NS (log 2 fold change): primary screen; for Dose.FC.LYZ.NS (log 2 fold change): vs plate median
Text: as §1

Structure (SMILES)	Dose.FC.LYZ.S (ISC-enriched organoids [1]; Dose 0.08 uM) [log 2 fold change]	Dose.FC.LYZ.S (ISC-enriched organoids [1]; Dose 0.40 uM) [log 2 fold change]	Dose.FC.LYZ.S (ISC-enriched organoids [1]; Dose 2.00 uM) [log 2 fold change]	Dose.FC.LYZ.S (ISC-enriched organoids [1]; Dose 10.00 uM) [log 2 fold change]	Dose.FC.CTG (ISC-enriched organoids [2]; Dose 0.08 uM) [log 2 fold change]	Z.CTG (ISC-enriched organoids [2]; Dose 0.08 uM)	Dose.FC.CTG (ISC-enriched organoids [2]; Dose 0.40 uM) [log 2 fold change]	Z.CTG (ISC-enriched organoids [2]; Dose 0.40 uM)	Dose.FC.CTG (ISC-enriched organoids [2]; Dose 2.00 uM) [log 2 fold change]	Z.CTG (ISC-enriched organoids [2]; Dose 2.00 uM)	Dose.FC.CTG (ISC-enriched organoids [2]; Dose 10.00 uM) [log 2 fold change]	Z.CTG (ISC-enriched organoids [2]; Dose 10.00 uM)	Dose.FC.LYZ.NS (ISC-enriched organoids [3]; Dose 0.08 uM) [log 2 fold change]	Z.LYZ.NS (ISC-enriched organoids [3]; Dose 0.08 uM)	Dose.FC.LYZ.NS (ISC-enriched organoids [3]; Dose 0.40 uM) [log 2 fold change]	Z.LYZ.NS (ISC-enriched organoids [3]; Dose 0.40 uM)	Dose.FC.LYZ.NS (ISC-enriched organoids [3]; Dose 2.00 uM) [log 2 fold change]	Z.LYZ.NS (ISC-enriched organoids [3]; Dose 2.00 uM)	Dose.FC.LYZ.NS (ISC-enriched organoids [3]; Dose 10.00 uM) [log 2 fold change]	Z.LYZ.NS (ISC-enriched organoids [3]; Dose 10.00 uM)	further results
NC(=O)C1CCCc2c1[nH]c1ccc(Cl)cc21 (centres unmarked) [EX 527 (Selisistat)]	0.062	0.047	−0.051	−0.011	0.240	0.574	0.174	0.415	0.341	0.814	0.320	0.766	0.100	0.871	0.059	0.512	0.030	0.261	0.057	0.494	–
O=C(Nc1cccc(Nc2ncc(Br)c(NCCc3cnc[nH]3)n2)c1)N1CCCC1 [BX-912]	0.038	0.042	−0.161	−0.272	0.043	0.103	0.054	0.129	−0.246	−0.587	−0.397	−0.949	0.010	0.090	0.017	0.151	−0.089	−0.771	−0.196	−1.704	–
O=C1NC(=O)/C(=C/c2cccc(C(F)(F)F)c2)S1 [SMI-4a]	–	–	–	–	–	–	–	–	–	–	–	–	–	–	–	–	–	–	–	–	Dose.FC.LYZ.S (log 2 fold change) (ISC-enriched organoids [1]; Dose 0.08 uM): 0.036; Dose.FC.LYZ.S (log 2 fold change) (ISC-enriched organoids [1]; Dose 0.40 uM): −0.063; Dose.FC.LYZ.S (log 2 fold change) (ISC-enriched organoids [1]; Dose 2.00 uM): −0.042; Dose.FC.LYZ.S (log 2 fold change) (ISC-enriched organoids [1]; Dose 10.00 uM): −0.134; Z.CTG (standard z score) (ISC-enriched organoids [2]; Dose 0.08 uM): −0.366; Dose.FC.CTG (log 2 fold change) (ISC-enriched organoids [2]; Dose 0.08 uM): −0.153; Z.CTG (standard z score) (ISC-enriched organoids [2]; Dose 0.40 uM): −0.758; Dose.FC.CTG (log 2 fold change) (ISC-enriched organoids [2]; Dose 0.40 uM): −0.317; Z.CTG (standard z score) (ISC-enriched organoids [2]; Dose 2.00 uM): −0.793; Dose.FC.CTG (log 2 fold change) (ISC-enriched organoids [2]; Dose 2.00 uM): −0.332; Z.CTG (standard z score) (ISC-enriched organoids [2]; Dose 10.00 uM): −0.781; Dose.FC.CTG (log 2 fold change) (ISC-enriched organoids [2]; Dose 10.00 uM): −0.327; Z.LYZ.NS (standard z score) (ISC-enriched organoids [3]; Dose 0.08 uM): 0.188; Dose.FC.LYZ.NS (log 2 fold change) (ISC-enriched organoids [3]; Dose 0.08 uM): 0.022; Z.LYZ.NS (standard z score) (ISC-enriched organoids [3]; Dose 0.40 uM): −0.524; Dose.FC.LYZ.NS (log 2 fold change) (ISC-enriched organoids [3]; Dose 0.40 uM): −0.060; Z.LYZ.NS (standard z score) (ISC-enriched organoids [3]; Dose 2.00 uM): 0.283; Dose.FC.LYZ.NS (log 2 fold change) (ISC-enriched organoids [3]; Dose 2.00 uM): 0.032; Z.LYZ.NS (standard z score) (ISC-enriched organoids [3]; Dose 10.00 uM): −0.643; Dose.FC.LYZ.NS (log 2 fold change) (ISC-enriched organoids [3]; Dose 10.00 uM): −0.074
Cc1nnc(C(=O)NC(C)(C)c2nc(C(=O)NCc3ccc(F)cc3)c(O)c(=O)n2C)o1 [Raltegravir (MK-0518)]	–	–	–	–	–	–	–	–	–	–	–	–	–	–	–	–	–	–	–	–	Dose.FC.LYZ.S (log 2 fold change) (ISC-enriched organoids [1]; Dose 0.08 uM): 0.137; Dose.FC.LYZ.S (log 2 fold change) (ISC-enriched organoids [1]; Dose 0.40 uM): 0.037; Dose.FC.LYZ.S (log 2 fold change) (ISC-enriched organoids [1]; Dose 2.00 uM): 0.122; Dose.FC.LYZ.S (log 2 fold change) (ISC-enriched organoids [1]; Dose 10.00 uM): 0.183; Z.CTG (standard z score) (ISC-enriched organoids [2]; Dose 0.08 uM): 0.258; Dose.FC.CTG (log 2 fold change) (ISC-enriched organoids [2]; Dose 0.08 uM): 0.108; Z.CTG (standard z score) (ISC-enriched organoids [2]; Dose 0.40 uM): 0.224; Dose.FC.CTG (log 2 fold change) (ISC-enriched organoids [2]; Dose 0.40 uM): 0.094; Z.CTG (standard z score) (ISC-enriched organoids [2]; Dose 2.00 uM): 0.471; Dose.FC.CTG (log 2 fold change) (ISC-enriched organoids [2]; Dose 2.00 uM): 0.197; Z.CTG (standard z score) (ISC-enriched organoids [2]; Dose 10.00 uM): 0.407; Dose.FC.CTG (log 2 fold change) (ISC-enriched organoids [2]; Dose 10.00 uM): 0.170; Z.LYZ.NS (standard z score) (ISC-enriched organoids [3]; Dose 0.08 uM): 1.627; Dose.FC.LYZ.NS (log 2 fold change) (ISC-enriched organoids [3]; Dose 0.08 uM): 0.187; Z.LYZ.NS (standard z score) (ISC-enriched organoids [3]; Dose 0.40 uM): 0.302; Dose.FC.LYZ.NS (log 2 fold change) (ISC-enriched organoids [3]; Dose 0.40 uM): 0.035; Z.LYZ.NS (standard z score) (ISC-enriched organoids [3]; Dose 2.00 uM): 0.254; Dose.FC.LYZ.NS (log 2 fold change) (ISC-enriched organoids [3]; Dose 2.00 uM): 0.029; Z.LYZ.NS (standard z score) (ISC-enriched organoids [3]; Dose 10.00 uM): 0.366; Dose.FC.LYZ.NS (log 2 fold change) (ISC-enriched organoids [3]; Dose 10.00 uM): 0.042
